# Measured values: PubChem BioAssay AID1259347
# The source made the active and inactive calls.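 Rule for the calls: active = compounds raising absorbance, a cell survival measure, over 1.5-fold at the top dose, rising with dose; inactive = the rest.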
# Key:
# [1] = tested on: HCT116 Ad-hTR-mut infected, survival, MTT 4 d; test: survival after telomere uncapping, modulators, dose response, cell-based, HCT116, Ad-hTR-mut infection, MTT (AID 1259347)
# [2] = as above; conditions: HCT116 Ad-hTR-mut infected, survival, MTT 4 d; measured here: second series; at 10 µM; stronger effect = higher value
SMILES,EC50 [1],fold survival [2]
Cc1ccc(C(=O)Nc2ccc(S(=O)(=O)O)c3cc(S(=O)(=O)O)cc(S(=O)(=O)O)c23)cc1NC(=O)c1cccc(NC(=O)Nc2cccc(C(=O)Nc3cc(C(=O)Nc4ccc(S(=O)(=O)O)c5cc(S(=O)(=O)O)cc(S(=O)(=O)O)c45)ccc3C)c2)c1,< 10 µM,2.65
Cc1nc2cc(-c3ccc(Br)cc3)nn2c(C)c1CCC(=O)O,< 10 µM,1.44
C/C(=C\C(=O)Nc1ccccc1C(=O)O)c1ccc2ccccc2c1,> 0.1 µM (inactive),–
